In test [1] the test system is P388. The experiment in a line: Cytotoxicity against mouse P388 cells. It is filed as functional. The settings on record: read-out: ED50 (the source's name).
The test system of test [2] is P388. The experiment in a line: In vivo antitumor activity against mouse P388 cells at 2.2 to 17.5 mg/kg. It is filed as functional, organism-based.
Test [3] relates to P388. The experiment in a line: In vivo antitumor activity against mouse P388 cells at 1.4 to 11.4 mg/kg. In kind it is functional, organism-based.

Converted amounts (≈) assume the structure as drawn. The source made the active and inactive calls. The calls are words filed in the database; no cut-off is given here.

Turning to `COc1cc2cc(Oc3ccc4ccc(=O)oc4c3)c(=O)oc2cc1O` [DAPHNORETIN], the EC50 with P388 [1] turned out to be 2.2 µg/mL (≈ 6.24 µM). The outcome with P388 [2] and with P388 [3] was inactive.

On to `O=c1ccc2ccc(O)cc2o1` [UMBELLIFERONE], for which the EC50 in the test with P388 [1] came out at 0.4 µg/mL (≈ 2.47 µM). In addition, the outcome with P388 [2] and in the test on P388 [3] was inactive.

As to `COC1=CC(=O)C=C(OC)C1=O` [2,6-DIMETHOXYQUINONE], the EC50 in the test with P388 [1] was found to be 0.0015 µg/mL (≈ 0.00892 µM).

The values above are taken from ChEMBL document CHEMBL1145652, “Plant anticancer agents. XXVI. Constituents of Peddiea fischeri” (1983).
